Test system: eIF2-GTP-Met-tRNAi ternary complex
Assay: Ternary complex assay (dual luciferase, firefly/renilla ratio) in stable KLN-tTA/pBISA-DL(ATF-4) cells; HTS and hit confirmation
Assay type: cell-based, mouse
Set-up: Activity 10 uM / Activity 2.5 uM / Activity 5 uM: unit not given here
Conditions: confirmed hits of the screen (Table 5); for Activity 2.5 uM: compound at 2.5 uM; for Activity 10 uM: compound at 10 uM; for Activity 5 uM: compound at 5 uM

Row | SMILES | Activity 2.5 uM | Activity 10 uM | Activity 5 uM
1 | CC(C)[Si]1(C(C)C)OCC2OC(N3C(=O)NC(=O)C[C@@H]3C(O)c3ccccc3)CC2O[Si](C(C)C)(C(C)C)O1 (stereo partly shown) [Compound 680834] | 0.76 | 4.25 | 
2 | C(=Nc1cnc2ccccc2c1)c1ccccn1 [Compound 101544] |  | 3.1185 | 2.767
3 | O=[N+]([O-])c1ccc(OCc2ccc(CBr)cc2)c(Cl)c1 [Compound 212379] | 2.28 | 4.4 | 
4 | Cc1ccc(C2=Nc3cccc4cccc(c34)N2)cc1 [Compound 657189] | 2.65 | 3.16 | 
5 | Cc1ccc(-c2nc(-c3ccc(N=Cc4ccc(N(CCCl)CCCl)cc4C)cc3)cs2)cc1.Cl [Compound 101484] |  | 3.4 | 2.4
6 | NNC(=S)N/N=C/c1ccc([N+](=O)[O-])s1 [Compound 170334] | 0.98 | 4.45 | 
7 | O=Nc1c(O)ccc2ccccc12.[Fe].[Na+] [Compound 51522] | 1.66 | 10.99 | 
8 | O=c1cc(-c2ccc3ccccc3n2)oc2ccc(Cl)cc12 [Compound 61626] |  | 3.1685 | 2.793
9 | C1=Cc2ccccc2/C1=C/c1ccc2c(c1)OCO2 [Compound 86430] |  | 6.063 | 4.871
10 | CCC[N+]1=C(/C=C/c2cc(C)c3cccnc3c2O)C(C)(C)c2ccccc21 [Compound 91815] | 3.3 | 15.17 | 
11 | CN1c2ccc(Br)c[c]2[Sn]([CH3])([CH3])[c]2cc(Br)ccc21 [Compound 118026] |  | 40.338 | 37.512
12 | CCC[CH2][Sn]1([CH2]CCC)[O]C2C(CO)OC(n3c(Br)c(C#N)c4c(N)ncnc43)C2[O]1 (stereo not shown) [Compound 291104] | 1.4 | 3.83 | 
13 | O=C(COc1ccc(Cl)cc1)Nc1nccs1 [Compound 204716] | 2.2 | 3.01 | 
14 | Cc1ccc(NN(C)c2ccc(C)cc2)cc1 [Compound 86537] | 3.85 | 7.51 | 
15 | CN(C)c1ccc(N=Nc2ccncc2)cc1 [Compound 170600] | 2.21 | 3.46 | 
16 | CCCCC(Oc1cc(C(C)(C)C)c(O)c(C(C)(C)C)c1)C(=O)O (stereo not shown) [Compound 297621] | 18.95 |  | 
17 | CNCC(O)c1ccc(O)c(O)c1.[Pt].c1ccc([PH+](c2ccccc2)c2ccccc2)cc1.c1ccc([PH+](c2ccccc2)c2ccccc2)cc1 [Compound 377377] | 0.77 | 34.93 | 
18 | N#Cc1ncc(Cl)cc1[N+](=O)[O-] [Compound 141226] | 1.05 | 3.5 | 
19 | CCCCCCCCCCCc1n(Cc2ccccc2)c2ccccc2[n+]1C.[Br-] [Compound 148342] |  | 19.7555 | 14.51
20 | O=C1c2c(-c3ccccc3)ccc(-c3ccccc3)c2C2(O)OC1(O)c1c(-c3ccccc3)ccc(-c3ccccc3)c1C2=O [Compound 361889] | 0.88 | 12.01 | 
21 | Cc1c(C(=O)/C=C/c2ccccc2[N+](=O)[O-])[n+](=O)c2ccccc2n1[O-] [Compound 621482] | 1.17 | 5.15 | 
22 | C(C[P+](c1ccccc1)(c1ccccc1)c1ccccc1)=C(c1ccccc1)c1ccccc1 [Compound 135741] |  | 7.226 | 8.605
23 | CSc1ccc(NC(=O)Nc2cccc(F)c2)cc1 [Compound 205787] | 1.79 | 4.39 | 
24 | Cn1/c(=N\S(=O)(=O)c2ccccc2)n(S(=O)(=O)c2ccccc2)c2ccccc21 [Compound 690404] | 1.46 | 3.03 | 
25 | [Pd].[Pd].[S-]CC[S-].[S-]CC[S-].c1ccc([PH+](c2ccccc2)c2ccccc2)cc1.c1ccc([PH+](c2ccccc2)c2ccccc2)cc1 [Compound 300554] | 0.48 | 8.96 | 

Reference: patent US9932300B2, “N,N′-diarylurea compounds and N,N′-diarylthiourea compounds as inhibitors of translation initiation” (President and Fellows of Harvard College, priority 2009, dated 2018)
